These are literature values, as cited in US20130225581A1, “NITROGEN-CONTAINING AROMATIC HETEROCYCLIC DERIVATIVE” (KYOWA HAKKO KIRIN CO., LTD, priority 2010, published 2013).

The subject of the data set is human gastric cancer tumor models.

With `COc1cc2c(Oc3ccc4[nH]c(C)cc4c3F)ncnc2cc1OCCCN1CCCC1` [AZD2171], the antitumor activities entry is listed as “show antitumor activities”.

As for `COc1cc2nccc(Oc3ccc(NC(=O)NC4CC4)c(Cl)c3)c2cc1C(N)=O` [4-[3-chloro-4-(cyclopropylaminocarbonyl)aminophenoxy]-7-methoxy-6-quinolinecarboxamide], the antitumor activities entry is listed as “show antitumor activities”.
